Experimental data from ChEMBL document CHEMBL1201862, “PubChem BioAssay data set” (2004).
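Growth conditions: 96-well plates. Treatment: test compound, 48 hours, 5 concentrations. Analysis: linear interpolation between bracketing concentrations; unreached endpoints set to highest concentration. The concentration for 50% growth inhibition is given as GI50.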 Activity calls are given as the source filed them. Cut-off read from the data, not from the text of the source: active = GI50 up to about 1.1 µM and inactive = higher.

How the values were obtained:
Test in all cases: NCI-60 cell line screen, 48 h
UACC-257 = test system: UACC-257
IGROV-1 = test system: IGROV-1
UACC-62 = test system: UACC-62
SNB-19 = test system: SNB-19
Malme-3M = test system: Malme-3M
A498 = test system: A498
NCI/ADR-RES = test system: NCI/ADR-RES
MDA-MB-231 = test system: MDA-MB-231
SR = test system: SR
M14 = test system: M14
RXF 393 = test system: RXF 393
LOX IMVI = test system: LOX IMVI
NCI-H226 = test system: NCI-H226
NCI-H23 = test system: NCI-H23
UO-31 = test system: UO-31
K562 = test system: K562
HL-60 = test system: HL-60
SNB-75 = test system: SNB-75
MOLT-4 = test system: MOLT-4
SK-MEL-28 = test system: SK-MEL-28

Structure (SMILES)	GI50 (UACC-257)	GI50 (IGROV-1)	GI50 (UACC-62)	GI50 (SNB-19)	GI50 (Malme-3M)	GI50 (A498)	GI50 (NCI/ADR-RES)	GI50 (MDA-MB-231)	GI50 (SR)	GI50 (M14)	GI50 (RXF 393)	GI50 (LOX IMVI)	GI50 (NCI-H226)	GI50 (NCI-H23)	GI50 (UO-31)	GI50 (K562)	GI50 (HL-60)	GI50 (SNB-75)	GI50 (MOLT-4)	GI50 (SK-MEL-28)
CC(C)/C=N\n1c(N)c(C#N)c(C#N)c1C(C)C	14.7 µM (inactive)	18.3 µM (inactive)	12.3 µM (inactive)	34.9 µM (inactive)	22.8 µM (inactive)	17.5 µM (inactive)	23.3 µM (inactive)	19.4 µM (inactive)	0.951 µM (active)	22.2 µM (inactive)	18.1 µM (inactive)	19 µM (inactive)	14.7 µM (inactive)	24 µM (inactive)	15.8 µM (inactive)	24 µM (inactive)	26.1 µM (inactive)	4.67 µM (inactive)	13.5 µM (inactive)	–
Cc1nc(-c2cc3c(ccc4ccccc43)oc2=O)cc2c1c(=O)oc1ccc3ccccc3c12	> 100 µM (inactive)	> 100 µM (inactive)	> 100 µM (inactive)	> 100 µM (inactive)	> 100 µM (inactive)	> 100 µM (inactive)	> 100 µM (inactive)	> 100 µM (inactive)	> 100 µM (inactive)	> 100 µM (inactive)	> 100 µM (inactive)	> 100 µM (inactive)	–	> 100 µM (inactive)	> 100 µM (inactive)	> 100 µM (inactive)	> 100 µM (inactive)	–	> 100 µM (inactive)	> 100 µM (inactive)
CC(C)(C)OC(=O)CN1CCNCCN(CC(=O)OC(C)(C)C)CCNCC1	> 100 µM (inactive)	> 100 µM (inactive)	> 100 µM (inactive)	> 100 µM (inactive)	–	> 100 µM (inactive)	> 100 µM (inactive)	> 100 µM (inactive)	26.9 µM (inactive)	–	> 100 µM (inactive)	86.7 µM (inactive)	> 100 µM (inactive)	–	> 100 µM (inactive)	47 µM (inactive)	36.2 µM (inactive)	> 100 µM (inactive)	64.7 µM (inactive)	> 100 µM (inactive)
CCC[N+](C)(C)CCCNC(=O)c1c(O)c2ccccc2[nH]c1=O	> 100 µM (inactive)	89.1 µM (inactive)	> 100 µM (inactive)	–	24.3 µM (inactive)	> 100 µM (inactive)	> 100 µM (inactive)	> 100 µM (inactive)	> 100 µM (inactive)	–	> 100 µM (inactive)	> 100 µM (inactive)	77.1 µM (inactive)	> 100 µM (inactive)	53.1 µM (inactive)	> 100 µM (inactive)	> 100 µM (inactive)	> 100 µM (inactive)	> 100 µM (inactive)	> 100 µM (inactive)
CC(C)(C)OC(=O)NC(Cc1ccc(O)cn1)C(N)=O (configuration not stated)	> 100 µM (inactive)	> 100 µM (inactive)	–	> 100 µM (inactive)	> 100 µM (inactive)	> 100 µM (inactive)	> 100 µM (inactive)	> 100 µM (inactive)	> 100 µM (inactive)	–	> 100 µM (inactive)	> 100 µM (inactive)	> 100 µM (inactive)	> 100 µM (inactive)	> 100 µM (inactive)	–	> 100 µM (inactive)	> 100 µM (inactive)	> 100 µM (inactive)	> 100 µM (inactive)
O=C(Cc1ccccc1)c1ccc2[nH]c(=O)oc2c1	43.2 µM (inactive)	9.53 µM (inactive)	58.5 µM (inactive)	–	–	> 100 µM (inactive)	18.4 µM (inactive)	36.1 µM (inactive)	38.3 µM (inactive)	47 µM (inactive)	39.6 µM (inactive)	52.1 µM (inactive)	1.22 µM (inactive)	51.3 µM (inactive)	–	31 µM (inactive)	50.4 µM (inactive)	0.126 µM (active)	31.6 µM (inactive)	28.6 µM (inactive)
O=C1OC[C@@H]2[C@@H](O)CCCCCN12	> 100 µM (inactive)	> 100 µM (inactive)	> 100 µM (inactive)	> 100 µM (inactive)	–	> 100 µM (inactive)	> 100 µM (inactive)	> 100 µM (inactive)	> 100 µM (inactive)	–	> 100 µM (inactive)	> 100 µM (inactive)	> 100 µM (inactive)	–	> 100 µM (inactive)	> 100 µM (inactive)	> 100 µM (inactive)	> 100 µM (inactive)	> 100 µM (inactive)	> 100 µM (inactive)
N#Cc1ccc(Oc2nc3ccc(C(F)(F)F)cc3nc2-c2ccccc2)cc1	21.8 µM (inactive)	18.8 µM (inactive)	32.6 µM (inactive)	21.8 µM (inactive)	17.8 µM (inactive)	15.7 µM (inactive)	16.9 µM (inactive)	14.5 µM (inactive)	2.77 µM (inactive)	16.1 µM (inactive)	26.4 µM (inactive)	27.2 µM (inactive)	–	16.5 µM (inactive)	17.2 µM (inactive)	22.1 µM (inactive)	20.1 µM (inactive)	14.1 µM (inactive)	20 µM (inactive)	16.6 µM (inactive)
